In US20230364069A1, “METHOD FOR TREATING NON-ALCOHOLIC STEATOHEPATITIS THROUGH CO-ADMINISTRATION OF CURCUMIN DERIVATIVE AND TGF-B RECEPTOR INHIBITOR” (UNIVERSITY INDUSTRY FOUNDATION, YONSEI UNIVERSITY WONJU …, priority 2021, published 2023):

Legend:
[1] = test system: mouse hepatocyte cell lines (AML12); experiment: TGF-β-induced fibrosis, co-administration of curcumin derivative and EW-7197 (epithelial-mesenchymal conversion, BODIPY, α-SMA staining, Western blotting); type: cell-based; details: 2 ng/ml TGF-β, 24 hours, 1 μM Cur or Cur5-8, 10 μM EW-7197; for epithelial-mesenchymal conversion caused by TGF-β: FIG. 8; for liver fibrosis (α-SMA staining, fibrosis marker Western blotting): FIGS. 8, 10, 11
Description: Fibrosis was induced in hepatocytes with TGF-β, a curcumin derivative and a TGF-β receptor inhibitor were co-administered, and then fibrosis and fat synthesis and degradation were checked.
Specifically, 2 ng/ml of TGF-β was administered to the cells of Example 1-1, the cells were divided into administration groups of vehicle (Veh), 1 μM curcumin (Cur), 1 μM curcumin 5-8 (Cur5-8), 0.5 μM EW-7197 (EW0.5), 10 μM EW-7197 (EW or EW10), 1 μM curcumin and 0.5 μM EW-7197 (EW0.5+Cur), 1 μM curcumin and 10 μM EW-7197 (EW+Cur or EW10+Cur), 1 μM curcumin 5-8 and 0.5 μM EW-7197 (EW0.5+Cur5-8), 1 μM curcumin 5-8 and 10 μM EW-7197 (EW+Cur5-8 or EW10+Cur5-8), respective samples were administered, and culturing was performed for 24 hours. The control group (Con) was not treated with either TGF-β or the sample. […] After washing with PBS 1×, stained cells were observed.
In addition, in order to check the degree of fibrosis of hepatocytes, the cells cultured for 24 hours were fixed with 4% paraformaldehyde and then stained by using α-SMA (Santa Cruz Biotechnology, Inc., Dallas, Texas, USA), an Alexafluor 488 (Cell Signaling Technology, Danvers, Massachusetts, USA) antibody, and DAPI (Abcam plc., Cambridge, MA, USA). The cells were mounted with a mounting solution (Fisher Scientific, Hampton, Rockingham, USA), the manufactured sample was photographed using a confocal microscope to obtain photographs of stained cells, and the degree of color development in the photographs of the stained cells was analyzed with the ImageJ program.
In addition, in order to confirm the degree of fibrosis of hepatocytes, the cells cultured for 24 hours were collected, and protein expressions of α-SMA, Collagen I (Coll), p-SMAD2, and p-SMAD3 were checked by Western blotting with fibrosis markers in the same method as described in <Example 1-3>.
In order to check a synergistic effect of inhibiting fibrosis caused by a TGF-β and inhibiting fat accumulation caused thereby in case of co-administration of a curcumin derivative (Cur5-8) and a TGF-β receptor inhibitor (EW-7197), epithelial-mesenchymal conversion of hepatocytes was confirmed through a cell experiment by the method described in Example 1-5, and BODIPY staining and α-SMA staining were performed. Also, protein expressions of α-SMA, Collagen I p-SMAD2, and p-SMAD3 were checked by Western blotting.

[2] = test system: C57BL/6 mice in which steatohepatitis was induced with a methionine-choline deficient diet; experiment: Steatohepatitis animal model (MCD), curcumin 5-8 and high-concentration EW-7197 (40 mg/kg); type: in vivo, mouse; details: for fat accumulation in the liver tissues / fibrosis of liver tissues: MCD-fed mice, EW-7197 40 mg/kg, Western blotting, FIGS. 19 to 24; for fat accumulation in the liver tissues: H&E; for fibrosis of liver tissues: Picrosirius red, Masson's trichrome
Description: 8-week-old male C57BL/6 mice weighing 20 to 25 g were purchased from Dae Han Bio Link Co., Ltd. (Chungbuk). Mice were acclimatized for one week under room temperature (25° C.±2° C.) in 60%±5% humidity and a 12-hour light/dark cycle. Mice were fed with a normal diet (Research Diets, RD) and allowed to drink water freely. Afterwards, the mice were randomly divided into five groups according to the fed diets or administered drugs, and the five groups were a group which was fed with a normal diet (Con), a group which was fed with a methionine-choline deficient diet (MCD), a group which was fed with a mixture of an MCD and curcumin 5-8 (1 g of curcumin 5-8 per 1 kg of the diet) (MCD+Cur5-8), a group which was fed with an MCD and to which EW-7197 was orally administered (MCD+EW), and a group which was fed with a mixture of an MCD and curcumin 5-8 and to which EW-7197 was orally administered together (MCD+EW+Cur5-8) (n=10).
EW-7197 was administered directly to the stomach by an oral administration method once every two days at 40 mg/kg. Body weights were measured every week during the experiment period, and liver tissues were harvested after 6 weeks and stored at −80° C. All experiments were performed with the approval of the Institutional Animal Care and Use Committee at Wonju College of Medicine of Yonsei University (YWC-200907-1).
In order to confirm the physiological changes in case of co-administration of a curcumin derivative (Cur5-8) and a TGF-β receptor inhibitor (EW-7197), the liver weights and the concentrations of TG, TC, AST, ALT, and γ-GT in serum were measured. In addition, hydroxyprolin expression was checked as a fibrosis marker in the liver tissues.
Specifically, the weights of the liver tissues harvested in Examples 2-1 and 2-2 were measured before storage.
In Examples 2-1 and 2-2, blood was collected after the experiment was completed, and concentrations of TG, TC, AST, ALT, and γ-GT in serum were measured. In order to measure blood glucose, triglyceride, cholesterol, and AST and ALT concentrations, ELISA kit of Asan Pharm. Co., Ltd. was purchased, and the measuring was performed. γ-GT in the liver was measured by using Mak089 of Sigma-Aldrich, and hydroxyproline was measured by using STA-675 ELISA kit of Cell Biolabs, Inc.
In addition, the hydroxyprolin expression was checked in the liver tissues harvested in Examples 2-1 and 2-2.
In order to check effects of inhibiting fat accumulation in liver tissues and fibrosis in liver tissues in case of co-administration of a curcumin derivative (Cur5-8) and a TGF-β receptor inhibitor (EW-7197), the liver tissues were stained.
The liver tissues harvested in Examples 2-1 and 2-2 were fixed with 10% formaldehyde, the formaldehyde was washed out with running water for more than 12 hours, and then washing was performed with 60% ethanol at a one-hour interval, with 70% ethanol at a one-hour interval, and with 100% ethanol at a one-hour interval. Then, the transparency process in xylene was performed three times for one hour each, and the infiltration process in paraffin was performed twice for one hour each. Then, the paraffin block was cut to a thickness of about […] to obtain slices. After deparaffinization, the slices were stained with hematoxylin and eosin (H&E staining), and blood vessels and lipid droplets in the liver tissues were checked. […]
In addition, H&E-stained liver slices were evaluated by using the NAFLD activity score (NAS) system. […]

Structure (SMILES) | epithelial-mesenchymal conversion caused by TGF-β [1] | liver fibrosis (α-SMA staining, fibrosis marker Western blotting) [1] | AST (aspartate transaminase) ([2]; MCD-fed C57BL/6 mice, 6 weeks, EW-7197 40 mg/kg oral once every two days, curcumin 5-8 1 g per 1 kg diet) | fat accumulation in the liver tissues [2] | fibrosis of liver tissues [2] | fat accumulation / adipogenesis in cells (BODIPY staining) ([1]; FIGS. 8, 9)
COc1cc(/C=C/C(=O)c2cccc(NC(=O)C(C)C)c2)ccc1O [Cur5-8, N-{3-[(2E)-3-(4-hydroxy-3-methoxyphenyl)prop-2-enoyl]phenyl}-2-methylpropanamide] | not inhibited | liver fibrosis was induced | 119.9 ± 3.80 IU/L | reduced | not improved | –
Cc1cccc(-c2[nH]c(CNc3ccccc3F)nc2-c2ccc3ncnn3c2)n1 [EW-7197, N-(2-fluorophenyl)-5-(6-methyl-2-pyridinyl)-4-[1,2,4]triazolo[1,5-a]pyridin-6-yl-1H-imidazole-2-methanamine] | inhibited | inhibited | – | not inhibited | inhibited | fat accumulation in cells was exhibited
